Test results: US4619925A, “3-Propenyl cephalosporin derivatives” (priority 1985, dated 1986)
Values after ≈ are worked out from the molar mass of the structure shown.

What was measured:
[1] = tested on: S. pneumoniae A9585; assay: In vitro activity against fastidious bacteria; assay type: cell-based; conditions: Streptococcus pneumoniae; S. pneumoniae A9585; read-out: MIC
Description: (§1) Table 5 contains comparative data for in vitro antibacterial activity against fastidious bacteria.

[2] = tested on: S. pneumoniae A20759; assay: In vitro activity against fastidious bacteria; assay type: cell-based; conditions: Streptococcus pneumoniae; S. pneumoniae A20759; read-out: MIC
Description: as §1

[3] = tested on: S. pyogenes A15040; assay: In vitro activity against fastidious bacteria; assay type: cell-based; conditions: Streptococcus pyogenes; S. pyogenes A15040; read-out: MIC
Description: as §1

[4] = tested on: S. pyogenes Dick; assay: In vitro activity against fastidious bacteria; assay type: cell-based; conditions: Streptococcus pyogenes; S. pyogenes Dick; read-out: MIC
Description: as §1

[5] = tested on: N. meningitidis A20049; assay: In vitro activity against fastidious bacteria; assay type: cell-based; conditions: Neisseria meningitidis; N. meningitidis A20049; read-out: MIC
Description: as §1

[6] = tested on: S. pyogenes A9604; assay: In vitro activity against fastidious bacteria; assay type: cell-based; conditions: Streptococcus pyogenes; S. pyogenes A9604; read-out: MIC
Description: as §1

[7] = tested on: S. pyogenes A20065; assay: In vitro activity against fastidious bacteria; assay type: cell-based; conditions: Streptococcus pyogenes; S. pyogenes A20065; read-out: MIC
Description: as §1

[8] = tested on: H. influenzae A22482; assay: In vitro activity against fastidious bacteria; assay type: cell-based; conditions: Haemophilus influenzae; H. influenzae A22482; ampicillin-sensitive (ABPC-S); read-out: MIC
Description: as §1

[9] = tested on: N. meningitidis A21495; assay: In vitro activity against fastidious bacteria; assay type: cell-based; conditions: Neisseria meningitidis; N. meningitidis A21495; read-out: MIC
Description: as §1

[10] = tested on: H. influenzae A22481; assay: In vitro activity against fastidious bacteria; assay type: cell-based; conditions: Haemophilus influenzae, ampicillin-resistant (ABPC-R)
Description: as §1

[11] = tested on: N. gonorrheae A20143; assay: In vitro activity against fastidious bacteria; assay type: cell-based; conditions: N. gonorrheae A20143; read-out: MIC
Description: as §1

[12] = tested on: H. influenzae A20193; assay: In vitro activity against fastidious bacteria; assay type: cell-based; conditions: Haemophilus influenzae; H. influenzae A20193; ampicillin-sensitive (ABPC-S); read-out: MIC
Description: as §1

[13] = tested on: S. pyogenes s-23; assay: In vitro activity against fastidious bacteria; assay type: cell-based; conditions: Streptococcus pyogenes, S23; S. pyogenes s-23; read-out: MIC
Description: as §1

[14] = tested on: H. influenzae A22491; assay: In vitro activity against fastidious bacteria; assay type: cell-based; conditions: Haemophilus influenzae, ampicillin-resistant (ABPC-R)
Description: as §1

[15] = tested on: H. influenzae A21523; assay: In vitro activity against fastidious bacteria; assay type: cell-based; conditions: Haemophilus influenzae; H. influenzae A21523; ampicillin-sensitive (ABPC-S); read-out: MIC
Description: as §1

[16] = tested on: S. pneumoniae Type I; assay: In vitro activity against fastidious bacteria; assay type: cell-based; conditions: Streptococcus pneumoniae; S. pneumoniae Type I; read-out: MIC
Description: as §1

[17] = tested on: H. influenzae A9833; assay: In vitro activity against fastidious bacteria; assay type: cell-based; conditions: Haemophilus influenzae; H. influenzae A9833; ampicillin-sensitive (ABPC-S); read-out: MIC
Description: as §1

[18] = tested on: H. influenzae A9729; assay: In vitro activity against fastidious bacteria; assay type: cell-based; conditions: Haemophilus influenzae; H. influenzae A9729; ampicillin-sensitive (ABPC-S); read-out: MIC
Description: as §1

[19] = tested on: N. meningitidis A20048; assay: In vitro activity against fastidious bacteria; assay type: cell-based; conditions: Neisseria meningitidis; N. meningitidis A20048; read-out: MIC
Description: as §1

[20] = tested on: H. influenzae A22483; assay: In vitro activity against fastidious bacteria; assay type: cell-based; conditions: Haemophilus influenzae; H. influenzae A22483; ampicillin-sensitive (ABPC-S); read-out: MIC
Description: as §1

[21] = Mouse blood levels; conditions: mouse; for half-life: T 1/2
Description: Table 3 contains comparative blood level data for mice treated orally and intramuscularly with the hydroxyphenylglycyl derivatives.

C/C=C\C1=C(C(=O)O)N2C(=O)C(NC(=O)[C@H](N)c3ccc(O)cc3)[C@H]2SC1 (stereo partly drawn) [BMY-28100, 7-[D-2-amino-2-(4-hydroxyphenyl)acetamido]-3-[(Z)-1-propen-1-yl]-3-cephem-4-carboxylic acid]
MIC [1]: 0.1 µg/mL (≈ 0.257 µM)
MIC [2]: 0.4 µg/mL (≈ 1.03 µM)
MIC [3]: 0.05 µg/mL (≈ 0.128 µM)
MIC [4]: 0.05 µg/mL (≈ 0.128 µM)
MIC [5]: 0.4 µg/mL (≈ 1.03 µM)
MIC [6]: 0.05 µg/mL (≈ 0.128 µM)
MIC [7]: 0.05 µg/mL (≈ 0.128 µM)
MIC [8]: 0.8 µg/mL (≈ 2.05 µM)
MIC [9]: 0.4 µg/mL (≈ 1.03 µM)
MIC [10]: 0.8 µg/mL (≈ 2.05 µM)
MIC [11]: 0.8 µg/mL (≈ 2.05 µM)
MIC [12]: 0.8 µg/mL (≈ 2.05 µM)
MIC [13]: 0.05 µg/mL (≈ 0.128 µM)
MIC [14]: 0.8 µg/mL (≈ 2.05 µM)
MIC [15]: 0.8 µg/mL (≈ 2.05 µM)
MIC [16]: 0.1 µg/mL (≈ 0.257 µM)
MIC [17]: 0.8 µg/mL (≈ 2.05 µM)
MIC [18]: 0.8 µg/mL (≈ 2.05 µM)
MIC [19]: 0.4 µg/mL (≈ 1.03 µM)
MIC [20]: 0.8 µg/mL (≈ 2.05 µM)
concentration at 10 min ([21]; blood, im, 20 mg/kg): 14000 ng/mL
concentration at 20 min ([21]; blood, im, 20 mg/kg): 15000 ng/mL
concentration at 0.5 h ([21]; blood, im, 20 mg/kg): 12000 ng/mL
concentration at 40 min ([21]; blood, im, 20 mg/kg): 8500 ng/mL
concentration at 50 min ([21]; blood, im, 20 mg/kg): 7500 ng/mL
concentration at 1 h ([21]; blood, im, 20 mg/kg): 5400 ng/mL
concentration at 1.5 h ([21]; blood, im, 20 mg/kg): 2500 ng/mL
concentration at 2 h ([21]; blood, im, 20 mg/kg): 1600 ng/mL
concentration at 0.5 h ([21]; blood, po, 20 mg/kg): 9300 ng/mL
concentration at 1 h ([21]; blood, po, 20 mg/kg): 6900 ng/mL
concentration at 2 h ([21]; blood, po, 20 mg/kg): 4200 ng/mL
concentration at 3 h ([21]; blood, po, 20 mg/kg): 2500 ng/mL
concentration at 4 h ([21]; blood, po, 20 mg/kg): 970 ng/mL
concentration at 5 h ([21]; blood, po, 20 mg/kg): 810 ng/mL
concentration at 6 h ([21]; blood, po, 20 mg/kg): 650 ng/mL
concentration at 7 h ([21]; blood, po, 20 mg/kg): 340 ng/mL
concentration at 0.5 h ([21]; blood, po, 100 mg/kg): 33000 ng/mL
concentration at 1 h ([21]; blood, po, 100 mg/kg): 17000 ng/mL
concentration at 2 h ([21]; blood, po, 100 mg/kg): 6500 ng/mL
concentration at 3 h ([21]; blood, po, 100 mg/kg): 4500 ng/mL
concentration at 4 h ([21]; blood, po, 100 mg/kg): 3300 ng/mL
concentration at 5 h ([21]; blood, po, 100 mg/kg): 2700 ng/mL
concentration at 6 h ([21]; blood, po, 100 mg/kg): 2500 ng/mL
concentration at 7 h ([21]; blood, po, 100 mg/kg): 1700 ng/mL
AUC ([21]; in vivo, im, 20 mg/kg): 13000 ng·h/mL
half-life ([21]; in vivo, im, 20 mg/kg): 31.2 min
Cmax ([21]; in vivo, po, 20 mg/kg): 12000 ng/mL
T 1/2 ([21]; in vivo, po, 20 mg/kg): 2.3 h
AUC ([21]; in vivo, po, 20 mg/kg): 20000 ng·h/mL
half-life ([21]; in vivo, po, 20 mg/kg): 84 min
AUC ([21]; in vivo, po, 100 mg/kg): 51000 ng·h/mL
half-life ([21]; in vivo, po, 100 mg/kg): 126 min
